The term pIC50 denotes the negative decadic logarithm of the IC50, by convention in mol/L. Broadly, the inhibition is the relative decrease from the control value, in per cent.

The text below walks through data of patent US20240083857A1, “2-Methyl-Quinazolines” (Bayer Pharma Aktiengesellschaft, priority 2017, published 2024).

pIC50: −log10 of the molar value. Like-named read-outs stand apart in the source and are kept apart here. Where only a bound is given, the exact number is not on record here.

Experiment [1] addresses K-Ras^G12C : hSOS1 interaction (Homo sapiens, UniProt Q07889). In words: Biochemical assay 1: K-Ras^G12C interaction assay with hSOS1 (HTRF). It is filed as binding. As to conditions: for pIC50: E-notation values, unit inferred, read-out: Assay 1 (KRAS-SOS interaction) IC50; for inhibition at 20 µM: read-out: Assay 1 (KRAS-SOS Interaction) activity expressed as % inhibition at 20 μM. (In TR-FRET formats the signal depends on donor and acceptor labels being close together.)

Experiment [2] addresses human SOS1 (loading of human K-Ras^G12C-GDP with fluorescent GTP-analog) (Homo sapiens, UniProt Q07889). The experiment in a line: Biochemical assay 3: K-Ras^G12C activation assay by hSOS1 (HTRF). The note with it: for inhibition at 20 µM: read-out: Assay 3 (KRAS-Activation by SOS no GTP) activity expressed as % inhibition at 20 μM.
Setting [3] is: E-notation values, unit inferred, read-out: Assay 3 (KRAS-Activation) IC50.
[4] abbreviates: no GTP, read-out: Assay 3 (KRAS-Activation by SOS no GTP) activity expressed as IC50.

On to `COc1cc2nc(C)nc(NC(C)c3ccc(-c4ccnc(O)c4)s3)c2cc1OC` (stereo not shown) [Example 410, 4-(5-{1-[(6,7-dimethoxy-2-methylquinazolin-4-yl)amino]ethyl}-2-thienyl)pyridin-2-ol], for which the negative logarithm of the IC50 (pIC50) in experiment [1] is 5.37; in experiment [2] (setting [3]), less than 4.70.

For the molecule `COc1cc2nc(C)nc(NC(C)c3cc(Cl)c(Br)s3)c2cc1OC` (stereo not shown) [Example 432, N-[1-(5-bromo-4-chlorothiophen-2-yl)ethyl]-6,7-dimethoxy-2-methylquinazolin-4-amine], the pIC50 in experiment [1] was 4.78; in experiment [2] (setting [3]), less than 4.70.

As to `Cc1nc(N[C@H](C)c2cccc(Cl)c2)c2cc(-c3cn[nH]c3)ccc2n1` [Example 405, N-[(1R)-1-(3-chlorophenyl)ethyl]-2-methyl-6-(1H-pyrazol-4-yl)quinazolin-4-amine], the pIC50 in experiment [1] is 5.95; in experiment [2] (setting [3]), 5.88.

In the case of `COc1cc2nc(C)nc(NC(C)c3ccc(=O)[nH]c3)c2cc1OC` (single isomer, unassigned; enantiomer 1) [Example 227, 5-{1-[(6,7-dimethoxy-2-methylquinazolin-4-yl)amino]ethyl}pyridin-2(1H)-one, Enantiomer 1], the inhibition at 20 µM in experiment [1] is 48%; in experiment [2] (no GTP) it was 34%.

Regarding `Cc1nc(NC(C)c2ccc(-c3ccccc3CN(C)C)s2)c2cc(NC(=O)N(C)C)ccc2n1` (stereo not shown) [Example 440, 3-(4-{[1-(5-{2-[(dimethylamino)methyl]phenyl}thiophen-2-yl)ethyl]amino}-2-methylquinazolin-6-yl)-1,1-dimethylurea], the pIC50 was 6.15 in experiment [1] and 6.04 in experiment [2] (setting [3]).

Take `CNCc1ccccc1-c1sc(C(C)Nc2nc(C)nc3cc(OC)c(OC)cc23)cc1C` (stereo not shown) [Example 402, 6,7-di methoxy-2-methyl-N-[1-(4-methyl-5-{2-[(methylamino)methyl]phenyl}thiophen-2-yl)ethyl]quinazolin-4-amine]: the values for the pIC50 in experiment [1] and in experiment [2] (setting [3]) were 7.08 and 7.01, respectively.

As to `Cc1nc(NC(C)c2ccc(Br)s2)c2cc(N3CCN(C)CC3)ccc2n1` (stereo not shown) [Example 416, N-[1-(5-bromothiophen-2-yl)ethyl]-2-methyl-6-(4-methylpiperazin-1-yl)quinazolin-4-amine], the results for the pIC50 in experiment [1] and in experiment [2] (setting [3]) were 6.06 and 5.94, respectively.

Take `Cc1nc(NC(C)c2ccc(-c3ccccc3CN(C)C)s2)c2cc(N)ccc2n1` (stereo not shown) [Example 423, N4-[1-(5-{2-[(dimethylamino)methyl]phenyl}-2-thienyl)ethyl]-2-methylquinazoline-4,6-diamine]: the pIC50 in experiment [1] was 6.69; in experiment [2] (setting [3]) it was 6.52.

With `COc1cc2nc(C)nc(NC(C)c3ccc(-c4ccccc4CN(C)C)s3)c2cc1OC` (single isomer, unassigned) [Example 390, N-[1-(5-{2-[(dimethylamino)methyl]phenyl}thiophen-2-yl)ethyl]-6,7-dimethoxy-2-methylquinazolin-4-amine], the pIC50 in experiment [1] was 5.30; in experiment [2] (setting [3]), 4.89.

With `COc1cc2nc(C)nc(NC(C)c3ccc(-c4ccc(C5CC5)cc4CN(C)C)s3)c2cc1OC` (stereo not shown) [Example 443, N-[1-(5-{4-cyclopropyl-2-[(dimethylamino)methyl]phenyl}thiophen-2-yl)ethyl]-6,7-dimethoxy-2-methylquinazolin-4-amine], the pIC50 is 6.95 in experiment [1] and 7.16 in experiment [2] (setting [3]).

For the molecule `Cc1nc(NC(C)c2ccc(Br)s2)c2cc(N3CCN(Cc4cccnc4)CC3)ccc2n1` (stereo not shown) [Example 424, N-[1-(5-bromothiophen-2-yl)ethyl]-2-methyl-6-[4-(pyridin-3-ylmethyl)piperazin-1-yl]quinazolin-4-amine], the pIC50 was 5.80 in experiment [1] and 5.42 in experiment [2] (setting [3]).

As to `COc1cc2nc(C)nc(NC(C)c3ccc(-c4ccccc4C4CC(=O)N4)s3)c2cc1OC` (stereo not shown) [Example 411, 4-[2-(5-{1-[(6,7-dimethoxy-2-methylquinazolin-4-yl)amino]ethyl}thiophen-2-yl)phenyl]azetidin-2-one], the negative-log IC50 (pIC50) was 4.84 in experiment [1] and less than 4.70 in experiment [2] (setting [3]).

As for `COc1cc2nc(C)nc(NC(C)c3cc(Cl)c(-c4ccccc4CN(C)C)s3)c2cc1OC` (stereo not shown) [Example 431, N-[1-(4-chloro-5-{2-[(dimethylamino)methyl]phenyl}thiophen-2-yl)ethyl]-6,7-dimethoxy-2-methylquinazolin-4-amine], the pIC50 in experiment [1] is 6.49; in experiment [2] (setting [3]), 6.52.

`COc1ccc(-c2ccc(C(C)Nc3nc(C)nc4cc(OC)c(OC)cc34)s2)c(C)c1` (stereo not shown) [Example 422, 6,7-dimethoxy-N-{1-[5-(4-methoxy-2-methylphenyl)thiophen-2-yl]ethyl}-2-methylquinazolin-4-amine]: the results for the pIC50 in experiment [1] and in experiment [2] (setting [3]) were 5.83 and 5.44, respectively.

Regarding `COc1cc2nc(C)nc(NC(C)c3cc(C)c(-c4cnc5n4CCC5)s3)c2cc1OC` (stereo not shown) [Example 381, N-{1-[5-(6,7-dihydro-5H-pyrrolo[1,2-a]imidazol-3-yl)-4-methylthiophen-2-yl]ethyl}-6,7-dimethoxy-2-methylquinazolin-4-amine], the pIC50 in experiment [1] was 6.31; in experiment [2] (setting [3]), 5.63.

Consider `COCCNCc1ccccc1-c1ccc(C(C)Nc2nc(C)nc3cc(OC)c(OC)cc23)s1` (stereo not shown) [Example 369, 6,7-dimethoxy-N-{1-[5-(2-{[(2-methoxyethyl)amino]methyl}phenyl)thiophen-2-yl]ethyl}-2-methylquinazolin-4-amine], for which the pIC50 in experiment [1] is 7.00; in experiment [2] (setting [3]), 6.77.

`COc1cc2nc(C)nc(NC(C)c3ccc(-c4ccc(F)cc4CNC(=O)c4cc5ccccc5[nH]4)s3)c2cc1OC` (stereo not shown) [Example 296, N-[2-(5-{1-[(6,7-dimethoxy-2-methylquinazolin-4-yl)amino]ethyl}thiophen-2-yl)-5-fluorobenzyl]-1H-indole-2-carboxamide]: the inhibition at 20 µM in experiment [1] stood at 34%. Also, the pIC50 in experiment [2] (setting [4]) is 4.93.

For `COc1cc2nc(C)nc(NC(C)c3cccc(OCc4ccccc4)c3)c2cc1OC` (stereo not shown) [Example 389, N-{1-[3-(benzyloxy)phenyl]ethyl}-6,7-dimethoxy-2-methylquinazolin-4-amine], the pIC50 in experiment [1] was 5.17; in experiment [2] (setting [3]) it was 4.77.

As for `COc1cc2nc(C)nc(NC(C)c3ccc(-c4ccc(O)nc4)s3)c2cc1OC` (stereo not shown) [Example 395, 5-(5-{1-[(6,7-dimethoxy-2-methylquinazolin-4-yl)amino]ethyl}thiophen-2-yl)pyridin-2-ol], the pIC50 is 6.01 in experiment [1] and 5.99 in experiment [2] (setting [3]).

Consider `CCCCC(O)c1ccccc1-c1ccc(C(C)Nc2nc(C)nc3cc(OC)c(OC)cc23)s1` (stereo not shown) [Example 377, 1-[2-(5-{1-[(6,7-dimethoxy-2-methylquinazolin-4-yl)amino]ethyl}thiophen-2-yl)phenyl]pentan-1-ol], for which the values for the pIC50 in experiment [1] and in experiment [2] (setting [3]) were 5.29 and 4.82, respectively.

For `Cc1ccc2nc(C)nc(N[C@H](C)c3cccc(Cl)c3)c2c1` [Example 404, N-[(1R)-1-(3-chlorophenyl)ethyl]-2,6-dimethylquinazolin-4-amine], the negative-log IC50 (pIC50) in experiment [1] was 5.33; in experiment [2] (setting [3]) it was 5.03.

Consider `COc1cc2nc(C)nc(NC(C)c3ccc(-c4ccc(C#N)cc4CN(C)C)s3)c2cc1OC` (stereo not shown) [Example 413, 4-(5-{1-[(6,7-dimethoxy-2-methylquinazolin-4-yl)amino]ethyl}thiophen-2-yl)-3-[(dimethylamino)methyl]benzonitrile], for which the pIC50 in experiment [1] was 6.65; in experiment [2] (setting [3]), 6.67.

As for `COc1cc2nc(C)nc(NC(C)c3ccc(-c4ccccc4CN4CCN(C(=O)OC(C)(C)C)CC4)s3)c2cc1OC` (stereo not shown) [Example 306, tert-butyl 4-[2-(5-{1-[(6,7-dimethoxy-2-methylquinazolin-4-yl)amino]ethyl}thiophen-2-yl)benzyl]piperazine-1-carboxylate], the inhibition at 20 µM in experiment [1] was 45%. In experiment [2] (setting [4]), the pIC50 is 5.10.

`Cc1nc(NC(C)c2ccc(Br)s2)c2cc(N3CCCC3)ccc2n1` (stereo not shown) [Example 419, N-[1-(5-bromothiophen-2-yl)ethyl]-2-methyl-6-(pyrrolidin-1-yl)quinazolin-4-amine]: the pIC50 was 5.19 in experiment [1] and 4.84 in experiment [2] (setting [3]).

For the molecule `COc1cc2nc(C)nc(NC(C)c3ccc(-c4ccc(CNC(=O)OC(C)(C)C)o4)s3)c2cc1OC` (stereo not shown) [Example 236, tert-butyl {[5-(5-{1-[(6,7-dimethoxy-2-methylquinazolin-4-yl)amino]ethyl}thiophen-2-yl)furan-2-yl]methyl}carbamate], the figures for the inhibition at 20 µM in experiment [1] and in experiment [2] (no GTP) were 37% and 17%, respectively.

Turning to `COc1cc2nc(C)nc(NC(C)c3ccc(-c4ccccc4C(O)C(F)(F)F)s3)c2cc1OC` (stereo not shown) [Example 380, 1-[2-(5-{1-[(6,7-dimethoxy-2-methylquinazolin-4-yl)amino]ethyl}thiophen-2-yl)phenyl]-2,2,2-trifluoroethanol], the pIC50 in experiment [1] is 6.03; in experiment [2] (setting [3]) it was 5.56.

On to `COc1cc2nc(C)nc(NC(C)c3c(C)ccc4[nH]ncc34)c2cc1OC` (stereo not shown) [Example 7, 6,7-dimethoxy-2-methyl-N-[1-(5-methyl-1H-indazol-4-yl)ethyl]quinazolin-4-amine], for which the values for the inhibition at 20 µM in experiment [1] and in experiment [2] (no GTP) were 44% and 33%, respectively.

Consider `COc1cc2nc(C)nc(NC(C)c3ccc(-c4c(Cl)cccc4CN)s3)c2cc1OC` (stereo not shown) [Example 409, N-[1-{5-[2-(aminomethyl)-6-chlorophenyl]thiophen-2-yl}ethyl]-6,7-dimethoxy-2-methylquinazolin-4-amine], for which the pIC50 is 7.31 in experiment [1] and 7.50 in experiment [2] (setting [3]).

For `COc1cc2nc(C)nc(NC(C)c3ccc(-c4ccccc4C(O)Cc4ccccc4)s3)c2cc1OC` (stereo not shown) [Example 376, 1-[2-(5-{1-[(6,7-dimethoxy-2-methylquinazolin-4-yl)amino]ethyl}thiophen-2-yl)phenyl]-2-phenylethanol], the values for the negative-log IC50 (pIC50) in experiment [1] and in experiment [2] (setting [3]) were 5.26 and 4.75, respectively.
